Measurements: publication PMC10447463, “Data-mining unveils structure–property–activity correlation of viral infectivity enhancing self-assembling peptides” (Nature Communications, 2023)
Where two headings read alike, the source gives them in different places.

Tests used:
[1] = tested on: HIV-1 infection of TZM-bl cells; test: HIV-1 infectivity enhancement assay, β-galactosidase luminescence; type: cell-based; details: for Rel-EFC / Log10 Infection Rel EFC: 1.3 µM peptide; for Rel-EFC: infection relative to EF-C (QCKIKQIINMWQ = 1); for Log10 Infection Rel EFC: log10 of infection relative to EF-C; for Log Infectivity: Log10 infection relative to EF-C, TZM-bl cells, asymmetric std dev errors; for Log10 Infection Rel EF-C: HIV-1 infection of TZM-bl cells; for Log10 Inf. rel. to EF-C: log10 of HIV-1 infection of TZM-bl cells relative to EF-C (EF-C = 0); for Log10 of Rel to EFC (Feb2021): Log10 of infection relative to EF-C
[2] = type: physicochemical; parameters: key to Fibril / Fibril Formation / TEM 2cat / Fibril: 1 = fibrils present; 0 non-fibrillar structures; details: for Fibril / Fibril Formation: 1 mg/mL, uranyl acetate stain, qualitative
[3] = Zeta-potential measurement; type: physicochemical
In short: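 Dissolve peptide from DMSO (10 mg/mL stock) into PBS pH 7.4 to 1 mg/mL. Incubate 1 d, RT. Dilute in 1 mM KCl just before reading. Derive zeta potential from mobility (Smoluchowski).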

[4] = Turbidity, derived count rate of scattered light; type: physicochemical; details: for Count Rate: derived count rate of scattered light (turbidity); for Log10 Count Rate: turbidity, derived count rate of scattered light, data of Figure 2D
[5] = Fig. S7 panel A (plotted against β-sheet content)
[6] = Log10 of infection rate relative to EF-C, Figure 3A source data
[7] = infection rate relative to EF-C, log10, data of Figure 2D
[8] = infection rate relative to EF-C, log10, source data of Figure 2C
[9] = FigS12 panel A, fibril category by TEM
[10] = TEM, 1 = fibrils present, 0 = non-fibrillar
[11] = TEM, 1 = fibrils present, 0 = non-fibrillar structures
[12] = zeta-potential of peptide, source data of Figure 2C
[13] = zeta-potential of the peptide assemblies, mean, Figure 3A source data
[14] = category: fibrils present or non-fibrillar
[15] = zeta potential of peptide assemblies
[16] = Fig. S7 panel B (plotted against CR), rounded to two decimals

Substance	Rel-EFC [1]	Log10 Infection Rel EFC [1]	Log Infectivity [1, 5]	Log10 Infection Rel EF-C [1, 6]	Log10 Infection Rel EF-C [1, 7]	Log10 Infection Rel EF-C [1, 8]	Log10 Inf. rel. to EF-C [1]	TEM 2cat ([2]; Fig S10 panel D)	Fibril / Fibril Formation ([2]; TEM)	Fibril [2, 10]	Fibril [2, 11]	Zeta-Potential / mV [3, 12] [mV]	Zeta-Potential / mV [3, 13] [mV]	Count Rate [4]	Log10 Count Rate [4]	Log10 of Rel to EFC (Feb2021) ([1]; all peptides of FigS16)	TEM 2cat [2, 14]	Zeta-Pot. [3, 15]	also measured
KFKQFFNMWQ	0,09	-1,05	-1.0494	-1.05	-1.0494	-1.0494	-1.0494	0	0	0	0	-2.615	-3.43	236.9	2.375				Abs. Inf. ([1]; absolute infection signal, HIV-1 on TZM-bl cells, β-galactosidase luminescence): 1000; TEM 2cat [2, 9]: 0; Fibril ([2]; FigS12 panel B, TEM): 0; Zeta-Pot. [3]: -3.43
KIKIKIKIYYYY	1,38	0,14	0.1402	0.14	0.1402	0.1402	0.1402	0	0	0	0	14.07	13.3	9918	3.996	0.14	0	13.3	Log10 of Rel to EFC (Feb2021) ([1]; second listing, peptides with TEM 2cat 0): 0.14
KIKIQI	0,07	-1,17	-1.169	-1.17	-1.169	-1.169	-1.169	0	0	0	0	-2.515	-5.63	108.3	2.035			-5.63	Log Infectivity [1, 16]: -1.17; Fibril ([2]; Fig S10 panel E): 0; TEM 2cat [2, 9]: 0; Fibril ([2]; FigS12 panel B, TEM): 0
KIKIQIAMWQ	0,39	-0,41	-0.4109	-0.41	-0.4109	-0.4109	-0.4109	1	1	1	1	13.33	11.3	540.9	2.733	-0.41	1	11.3	
KIKIQIN	0,27	-0,58	-0.5766	-0.58	-0.5766	-0.5766	-0.5766	1	1	1	1	4.4	3.34	43.43	1.638	-0.58	1	3.34	
KIKIQINAWQ	0,54	-0,27	-0.2703	-0.27	-0.2703	-0.2703	-0.2703	1	1	1	1	13.72	13.1	1494	3.174	-0.27	1	13.1	
KIKIQINM	0,36	-0,44	-0.4404	-0.44	-0.4404	-0.4404	-0.4404	1	1	1	1	10.17	8.51	262.1	2.418	-0.44	1	8.51	Log Infectivity [1, 16]: -0.44; Fibril ([2]; Fig S10 panel E): 1
KIKIQINMAQ	0,21	-0,67	-0.6722	-0.67	-0.6722	-0.6722	-0.6722	1	1	1	1	6.27	3.07	5859	3.768	-0.67	1	3.07	
KIKIQINMW	2,16	0,33	0.3339	0.33	0.3339	0.3339	0.3339	1	1	1	1	17.12	19.7	239.6	2.38	0.33	1	19.7	
KIKIQINMWA	0,69	-0,16	-0.1642	-0.16	-0.1642	-0.1642	-0.1642	1	1	1	1	16.43	14.7	1101.2	3.042	-0.16	1	14.7	
